Source: US20150038545A1, “HYDROXYPHENYL PYRROLE COMPOUNDS CONTAINING AN HYDROXAMIC ACID AS HDAC INHIBITORS AND MEDICINAL APPLICATIONS THEREOF” (UNIVERSIDAD DEL PAÍS VASCO, priority 2011, published 2015)

Tests used:
Human HDAC8 = target: T1, Human HDAC8 (Homo sapiens, UniProt Q9BY41); experiment: In vitro HDAC8 inhibition, fluorogenic peptide assay; format: biochemical; details: for IC50: read-out: IC50 (nM) of enzyme activity HDAC8
T1 construct: Full length, MW=42 kDa, expressed in an E. coli expression system; purchased BioMol SE-145; host or cells: E. coli
T1 sequence (Q9BY41 1-377): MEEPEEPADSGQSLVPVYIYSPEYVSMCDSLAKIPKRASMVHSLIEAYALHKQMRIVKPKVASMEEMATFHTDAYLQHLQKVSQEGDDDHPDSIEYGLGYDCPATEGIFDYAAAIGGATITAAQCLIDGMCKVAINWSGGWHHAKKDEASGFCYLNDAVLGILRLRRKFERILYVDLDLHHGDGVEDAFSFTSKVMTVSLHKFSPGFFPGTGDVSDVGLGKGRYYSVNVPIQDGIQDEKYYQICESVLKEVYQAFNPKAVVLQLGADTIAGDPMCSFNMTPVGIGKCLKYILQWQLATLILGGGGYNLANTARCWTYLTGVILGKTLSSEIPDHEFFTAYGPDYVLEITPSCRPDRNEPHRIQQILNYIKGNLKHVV
Procedure: All HDAC assays were performed using acetylated AMC-labeled peptide substrate: • Substrate for isoforms HDAC1, 2, 3, 4, 5, 6, 7, 9, 10, 11 and HeLa nuclear extract assays: Acetylated fluorogenic peptide from p53 residues 379-382 (RHKKAc) (BioMol. Cat. # KI-104). • Substrate for HDAC8 assays: Acetylated fluorogenic peptide from p53 residues 379-382 (RHKAcKAc) (BioMol. Cat. # KI-178).
Enzymes: • HDAC1 assay: 75 nM Human HDAC1 (GenBank Accession No. NM_004964): Full length with C-terminal GST tag, MW=79.9 kDa, expressed by baculovirus expression system in Sf9 cells (BioMol. Cat. # SE-456). • HDAC2 assay: 5 nM Human HDAC2 (GenBank Accession No. Q92769): Full length with C-terminal His tag, MW=60 kDa, expressed by baculovirus expression system in Sf9 cells (BioMol. Cat. # SE-500). • HDAC3 assay: 2.3 nM Human HDAC3/NcoR2 (GenBank Accession No. NM_003883 for HDAC3, GenBank Accession No.NM_006312 for NcoR2): Complex of human HDAC3, full length with C-terminal His tag, MW=49.7 kDa, and human NCOR2, N-terminal GST tag, MW=39 kDa, co-expressed in baculovirus expression system (BioMol. Cat. # SE-507). • HDAC4 assay: 266 nM Human HDAC4 (GenBank Accession No. NM_006037): Amino acids 627-1085 with N-terminal GST tag, MW=75.2 kDa, expressed in baculovirus expression system (BioMol, Hamburg, Germany). • HDAC5 assay: 588 nM Human HDAC5 (GenBank Accession No. NM_001015053): Full length with Nterminal GST tag, MW=150 kDa, expressed by baculovirus expression system in Sf9 cells (BioMol, Hamburg, Germany). • HDAC6 assay: 13 nM Human HDAC6 (GenBank Accession No. BC069243): Full length with N-terminal GST tag, MW=159 kDa, expressed by baculovirus expression system in Sf9 cells (BioMol. Cat. # SE-508). • HDAC7 assay: 962 nM Human HDAC7 (GenBank Accession No. AY302468): Amino acids 518-end with N-terminal GST tag, MW=78 kDa, expressed in baculovirus expression system (BioMol, Hamburg, Germany). • HDAC8 assay: 119 nM Human HDAC8 (GenBank Accession No. NM018486): Full length, MW=42 kDa, expressed in an E. coli expression system (BioMol. Cat. # SE-145). • HDAC9 assay: 986 nM Human HDAC9 (GenBank Accession No. NM178423): Amino acids 604-1066 with C-terminal His tag, MW=50.7 kDa, expressed in baculovirus expression system (BioMol, Hamburg, Germany). • HDAC10 assay: 781 nM Human HDAC10 (GenBank Accession No. NM_032019): Amino acids 1-631 with Nterminal GST tag, MW=96 kDa, expressed by baculovirus expression system in Sf9 cells (BioMol. Cat. # SE-559). • HDAC11 assay: 781 nM Human HDAC11 (GenBank Accession No. NM_BC009676) with N-terminal GST tag, MW=66 kDa, expressed in baculovirus expression system (BioMol. Cat. # SE-560). • HeLaNuclear Extract assay: 25 ng/μl Nuclear Extract from HeLa Cells: Prepared by high salt extraction of HeLa nuclei (human cervical cancer cell line), this extract is a rich source of HDAC activity (BioMol. Cat. # KI-140).
The reactions were carried out in a 96-well microplate for fluorometry in a 50 μl reaction volume. After the deacetylation reaction, Fluor-de-Lys-Developer (BioMol Cat. # KI-105) was added to each well to digest the deacetylated substrate, thus producing the fluorescent signal. The reaction was allowed to develop for 45 minutes at 30° C. with 5% CO2; then the fluorescent signal was measured with an excitation wavelength at 360 nm and an emission wavelength at 460 nm in a microplate-reading fluorometer (GeminiXS; Molecular Devices, Sunnyvale, Calif.). […] All experiments were performed in triplicate. IC50 was calculated by fitting the experimental data to a dose-response curve. DMSO was used as negative control; Trichostatin A (Biomol Cat. # GR-309) was used as positive control inhibitor.

SK-HEP-1 = experiment: Cancer cell growth inhibition (CellTiter-Glo), SK-HEP-1; format: cell-based; details: Homo sapiens, SK-HEP1; Liver Cancer, SK-HEP-1, 72 h treatment
Procedure: Cell culture-based assays were used to evaluate the ability of compounds of the invention to inhibit cancer cell growth.
Cells were obtained from the American Type Culture Collection (ATCC). Cells were cultured at 37° C. with 5% CO2 in the appropriate growth medium (see table below), and harvested respectively during the logarithmic growth period and counted with hemocytometer. The cell viability was examined by trypan blue exclusion. Cell concentrations were adjusted to 5.56×10^4 cells/ml with respective medium.
Stock solutions of test compounds and positive drugs Doxorubicin (Zhejiang, Haizheng, China), Cisplatin (Nanjing Zhiyao, China) and Mitomycin (Zhejiang, Haizheng, China) were prepared in dimethyl sulphoxide (DMSO) or PBS at 20 mM.
In order to determine the IC50 for each compound, experiments were carried out in 96-well plates and the cell lines seeded at a density of 5,000 cells/well. […] All treatments were performed in triplicate. 10 μl of drug solution was added to each well and incubated for 72 hours. At the end of the incubation, 100 μl of the CellTiter-Glo Reagent were added to each well and the contents were mixed for 2 munites on an orbital shaker to induce cell lysis. The plate was incubated at room temperature for 10 minutes to stabilize luminiscent signal, and luminiscent was recorded. […] In order to calculate IC50 values, dose-responsive curves were fitted using nonlinear regression model with a sigmoidal dose response.

Selectivity against HDAC6 (IC50 HDACx/IC50 HDAC6) HDAC8 (Human HDAC8)	IC50 (Human HDAC8) [nM]	IC50 (SK-HEP-1) [µM]	Compound
9.6	192	–	COc1ccc(-c2cc(-c3ccccc3)[nH]c2C(=O)NCCCCCC(=O)NO)cc1 [Compound A, N-[6-(hydroxyamino)-6-oxohexyl]-3-(4-methoxyphenyl)-5-phenyl-1H-pyrrole-2-carboxamide, reference compound]
5.4	174	–	COc1ccc(-c2cc(-c3ccccc3)c(C(=O)NCCCCCC(=O)NO)[nH]2)cc1 [Compound B, N-[6-(hydroxyamino)-6-oxohexyl]-5-(4-methoxyphenyl)-3-phenyl-1H-pyrrole-2-carboxamide, reference compound]
54.8	767	4.03	O=C(CCCCCNC(=O)c1[nH]c(-c2ccccc2)cc1-c1ccc(O)cc1)NO [Example 1, N-(6-(hydroxyamino)-6-oxohexyl)-3-(4-hydroxyphenyl)-5-phenyl-1H-pyrrole-2-carboxamide]
21.3	162	6.04	O=C(CCCCCNC(=O)c1[nH]c(-c2ccc(O)cc2)cc1-c1ccccc1)NO [Example 2, N-(6-(hydroxyamino)-6-oxohexyl)-5-(4-hydroxyphenyl)-3-phenyl-1H-pyrrole-2-carboxamide]
–	975	–	O=C(CCCCCNC(=O)c1[nH]c(-c2ccsc2)cc1-c1ccc(O)cc1)NO [Example 3, N-(5-(hydroxycarbamoyl)pentyl)-3-(4-hydroxyphenyl)-5-(3-thienyl)-1H-pyrrole-2-carboxamide]
–	591	–	O=C(CCCCCNC(=O)c1[nH]c(-c2ccoc2)cc1-c1ccc(O)cc1)NO [Example 4, 5-(3-furyl)-N-(5-(Hydroxycarbamoyl)pentyl)-3-(4-hydroxy-phenyl)-1H-pyrrole-2-carboxamide]
–	278	1.84	O=C(CCCCCNC(=O)c1[nH]c(-c2ccc(O)cc2)cc1-c1ccoc1)NO [Example 5, 3-(3-furyl)-N-(5-(hydroxycarbamoyl)pentyl)-5-(4-hydroxy-phenyl)-1H-pyrrole-2-carboxamide]
–	104	3.13	O=C(CCCCCNC(=O)c1[nH]c(-c2ccc(O)cc2)cc1-c1ccsc1)NO [Example 6, N-(5-(hydroxycarbamoyl)pentyl)-5-(4-hydroxyphenyl)-3-(3-thienyl)-1H-pyrrole-2-carboxamide]
